How the values were obtained:
[1] = tested on: Platelet aggregation induced by PAF; assay: Inhibition of platelet aggregation induced by PAF (Born nephelometric technique, platelet-rich plasma); format: cell-based, male New Zealand rabbits; conditions: rabbit platelet-rich plasma, platelet count 3x10⁵/mm³; PAF (C₁₈) 15 nM; read-out: IC₅₀
Description: Inhibition of platelet aggregation induced by PAF
Platelet-rich plasma (PRP) was prepared by centrifuging the blood at 250xg for 10 min at 4°C and then it was diluted with platelet-poor plasma (PPP) obtained by further centrifuging at 3000xg for 10 min. The platelet count was adjusted to 3x10⁵/mm³. […] The activities of the inhibitors were expressed as the IC₅₀ value, that is to say the concentration of the drug needed to inhibit platelet aggregation by 50%.

PAF-induced hypotension = assay: Inhibition of the hypotensive effect induced by PAF in normotensive rats; format: in vivo, Male Sprague Dawley rats; conditions: i.v. through the femoral vein 3 min before PAF injection (0.5 mcg/kg, i.v.); anaesthetized rats
Description: Inhibition of the hypotensive effect induced by PAF in normotensive rats.
Male Sprague Dawley rats (b.w. 180-220 g) anaesthetized with sodium pentobarbital (50 mg/kg, i.p. 1mL/100 g) were used. In order to measure the arterial pressure, a polyethylene catheter was introduced into the carotid artery. The arterial pressure was recorded with the help of a transducer coupled to a R611 Beckman polygraph. The test compounds were administered through the femoral vein 3 min before PAF injection (0.5 mcg/kg, i.v.). Control animals received only the vehicle. […]

[2] = tested on: ear oedema induced by arachidonic acid; assay: Rodent ear oedema induced by arachidonic acid; format: in vivo, Swiss, male mice; conditions: topical in acetone 30 min before irritant; 10% arachidonic acid, 2 mg/ear; read at 1 h; mouse ear
Description: (§1) Rodent ear oedema induced by application of several irritant agents
(§2) Groups of 8-10 Swiss, male mice, 6-8 weeks old, were used in the experiments. Animals had free access to food and water. Irritant dermatitis was elicited by painting both faces of the left ear of the mouse with 20 µL (10 µL each face) of the inflammatory agents. Concentrations (w/v) of the irritants were: 10% arachidonic acid and 0.01% TPA (12-O-tetradecanoylphorbol 13-acetate), both dissolved in acetone. Total applied doses were 2 and 0.002 mg/ear, respectively. Treatment was effected by application of a total of 20 µL of the test compound dissolved in acetone to both faces of the left ear of the mouse 30 min before the application of the irritant agent. Control animals received only the vehicle. At 1 h (arachidonic acid) and 6 h (TPA) after administration of the irritant, animals were killed by cervical dislocation. An 8 mm diameter punch biopsy was performed on each ear, the right (untreated) ear being the control for each animal. The swelling induced by the irritant was quantified as the percentage increase in the weight of the left ear biopsy over that of the right ear biopsy.

[3] = tested on: ear oedema induced by TPA (12-O-tetradecanoylphorbol 13-acetate); assay: Rodent ear oedema induced by TPA; format: in vivo, Swiss, male mice; conditions: topical in acetone 30 min before irritant; 0.01% TPA, 0.002 mg/ear; read at 6 h; mouse ear
Description: as §1
as §2, with “This test was performed according to the method described by Young et al. (Pharmacological Methods in the Control of Inflammation., ed. Chang, J.Y. & Lewis, A.J. pp 215-231. New York: Alan R. Liss, 1989). Groups” for “Groups”, “biopsy. Percentage inhibition of oedema was calculated according to the following formula: [formula] Activity of the inhibitors was expressed as the ID₅₀ value, i.e. the amount of compound by weight of animal (dose) required to inhibit the increase in weight by 50%, with respect to control animals.” for “biopsy.”

Molecule	IC50 [1]	ID₅₀ (PAF-induced hypotension)	ID₅₀ Arachidonic acid [2]	ID₅₀ TPA [3]
5-Bromo-3-[N-(2-ethoxycarbonylamino)ethyl-N-phenyl]carbamoyl-1-propylpyridinium chloride [Compound 2]	4.2 nM	0.039 mg/kg		
5-Bromo-3-[N-[2-(2-iodoethoxy)carbonylamino]ethyl-N-phenyl]carbamoyl-1-propylpyridinium chloride [Compound 4]	16 nM			
5-Bromo-3-[N-[2-(2-iodoethoxy)carbonylamino]ethyl-N-phenyl]carbamoyl₋1-propylpyridinium iodide [Compound 3]	10 nM		0.3-1 mg/ear	0.76 mg/ear
5-Bromo-3-[N-[2-(4-fluorobenzyloxy)carbonylamino]ethyl-N-phenyl]carbamoyl-1-propylpyridinium iodide [Compound 9]	3.8 nM	0.079 mg/kg	≈1 mg/ear	0.3-1 mg/ear
CCC[n+]1cc(Br)cc(C(=O)N(CCNC(=O)OCC)c2ccccc2)c1.[I-] [Compound 1, 5-Bromo-3-[N-(2₋ethoxycarbonylamino)ethyl-N-phenyl]carbamoyl-1-propylpyridinium iodide]	18 nM	0.046 mg/kg	0.31 mg/ear	0.31 mg/ear
CCC[n+]1cc(Br)cc(C(=O)N(CCN2CCOC2=O)c2ccccc2)c1.[I-] [Compound 5, 5-Bromo-3-[N-[2-(2-oxo-1,3-oxazolidin-3-yl)ethyl-N-phenyl]carbamoyl]-1-propylpyridinium iodide]	36 nM	0.16 mg/kg	≧1 mg/ear	0.68 mg/ear
CCC[n+]1cc(Br)cc(C(=O)N(CCOC(=O)NCCI)c2ccccc2)c1.[I-] [Compound 7]	2.1 nM	<0.025 mg/kg	0.50 mg/ear	0.20 mg/ear
CCC[n+]1cc(Br)cc(C(=O)N(CCNC(=O)OCC(F)(F)C(F)(F)F)c2ccccc2)c1.[I-] [Compound 8, 5-Bromo-3-[N-[2-(2,2,3,3,3-pentafluoropropoxy)carbonylamino]ethyl-N-phenyl]carbamoyl-1-propylpyridinium iodide]	4.2 nM		≈1 mg/ear	0.3-1 mg/ear
CCC[n+]1cc(Br)cc(C(=O)N(CCNC(=O)c2ccc(C(F)(F)F)cc2)c2ccccc2)c1.[I-] [Compound 10]	4.5 nM		≈1 mg/ear	0.3-1 mg/ear
CCC[n+]1cc(Br)cc(C(=O)N(CCNC(=O)c2ccc(C(F)(F)F)cc2)c2ccccc2)c1.[Cl-] [Compound 11, 5-Bromo-3-[N-[2-[(4-trifluoromethyl)phenyl]carbonylaminolethyl-N-phenyl]carbamoyl-1-propylpyridinium chloride]	23 nM			
CCC[n+]1cc(Br)cc(C(=O)N(CCNC(=O)c2ccc(C(F)(F)F)cc2)c2ccccc2)c1.[Cl-] [Compound 11]		0.022 mg/kg		
Cl.O=C(Cc1ccc(OCc2ccc3ccccc3n2)cc1)NCCN(C(=O)c1cncc(Br)c1)c1ccccc1 [Compound 13, 5-Bromo-3-[N-[2-[p-(2-quinolylmethoxy)phenyl]acetylamino]ethyl-N-phenyl]carbamoylpyridinium chloride]	52 nM	0.0065 mg/kg	>0.3 mg/ear	>0.1 mg/ear
Cl.O=C(NCCN(C(=O)c1cncc(Br)c1)c1ccccc1)c1cccc(OCc2ccc3ccccc3n2)c1 [Compound 15, 5-Bromo-3-[N-[2-[3-(2-quinolylmethoxy)phenyl]carbonylamino]ethyl-N-phenyl]carbamoylpyridinium chloride]				≦0.1 mg/ear
Cl.O=C(NCCN(C(=O)c1cncc(Br)c1)c1ccccc1)c1ccc(OCc2ccc3ccccc3n2)cc1 [Compound 17, 5-Bromo-3-[N-[2-[p-(2-quinolylmethoxy)phenyl]carbonylamino]ethyl-N-phenyl]carbamoylpyridinium chloride]				<0.1 mg/ear
